Columns and labels:
[1] = test system: Mouse Collagen-induced arthritis (mCIA); assay: Therapeutic mouse collagen-induced arthritis (mCIA) model; format: in vivo, Male DBA/J mice
Excerpt: Mouse Collagen-induced arthritis is a commonly used chronic, preclinical model of rheumatoid arthritis in which joint swelling and bone destruction occur following immunization with type II collagen. Reduction of disease incidence and severity has been shown previously to be predictive of disease-modification and signs and symptoms mitigation, respectively, in a clinical setting. In the therapeutic mCIA model, induction of disease incidence and severity was synchronized via LPS stimulation. Male DBA/J mice were immunized with 100 ug of bovine type II collagen (bCII) on day 0. […] Dosing of compounds was initiated in the therapeutic mode on day 34 and continued through day 49. Different treatments were compared by measuring the decrease in incidence (i.e., resolution of disease) and the decrease in severity of paw swelling over time.

[2] = test system: house dust mite-induced BAL inflammatory cell influx; assay: House dust mite model of asthma; format: in vivo, Mice; details: p.o., b.i.d., BAL fluid
[3] = test system: TNFα; assay: LPS-induced serum TNFα suppression, 28-day repeat dose mouse model; format: in vivo, Swiss Webster female mice
Procedure: The compounds were weighed and suspended in a vehicle of 0.5% methylcellulose/0.025% tween 20 (Sigma-Aldrich, St. Louis, MO). Compound suspensions were homogenized using a Polytron PT-3100 tissue homogenizer to create a very fine suspension and were then sonicated for 10 minutes using a water bath sonicator. Aliquots of each suspension were made for daily dosing at 0.2 ml/dose. Swiss Webster female mice, 10-12 weeks old, 28-29 grams, (Taconic, Germantown, NY) were used in accordance with the guidelines of the Institutional Animal Care and Use Committee and in accordance with NIH guidelines on laboratory animal welfare. Mice were acclimated in the Pfizer animal facility for three to seven days prior to being utilized in a study. […] Each treatment group contained 5-10 mice. To establish a dosing regimen for the studies, a pilot pharmacodynamic time course experiment was conducted to quantify TNFα repression after a single ED80 dose.
Body weights were measured on the first and last day of each experiment. Blood samples were obtained after three weeks of dosing for a steady-state pharmacokinetic (PK) analysis. To assess compound effects on LPS-induced TNFα, all mice received an intraperitoneal injection of LPS (Salmonella typhosa, L-7895; Sigma-Aldrich, St. Louis,) 2.5 hr after the last dose on day 28. Mice were sacrificed 90 minutes after LPS administration. Serum samples were quantified for osteocalcin and TNFα using the multiplex assays (Linco Research, Inc, St. Charles, MO; Luminex 100, Austin, TX). Samples were diluted 1:20 and the assay was run according to manufacturer's instructions. The osteocalcin standard was purchased separately (Biomedical Technologies Inc., Stoughton, MA). Mice were fasted for 4 hours before serum was collected for TNFα, and osteocalcin levels. For each experiment, outliers were detected by calculating the number of standard deviations from the mean of the group. If the value being examined was more than 2.5 standard deviations from the mean, it was excluded from the rest of the calculations.
The individual mouse percent inhibition values were fit to a four-parameter logistic model using the dose mean for each group.
ED50 and ED80 values were obtained for the various endpoints using a four-parameter logistic fit. For compounds which were tested multiple times, ED50 and ED80 values were obtained using four-parameter logistic fits of the combined data from multiple experiments.

[4] = Oral absorption profile, time to Cmax in dogs; details: dog, in vivo

SMILES: Cc1ncccc1NC(=O)c1ccc2c(c1)CC[C@@H]1C[C@@](O)(C(F)(F)F)CC[C@@]21Cc1ccccc1 [Example 1, (4βS,7R,8αR)-4β-benzyl-7-hydroxy-N-(2-methylpyridin-3-yl)-7-(trifluoromethyl)-4β,5,6,7,8,8α,9,10-octahydrophenanthrene-2-carboxamide]
- ED80 ([1]; Mus musculus, dosing day 34 through day 49, read-out: Therapeutic mCIA (ED80 dose)): 1.5 mg/kg
- Therapeutic mCIA (ED50 dose) ([1]; dosing day 34 through day 49, listed as Example 1 free base): 0.4 mg/kg
- Disease severity (therapeutic mCIA) EAUC50 (AUC 0-4 hr) ([1]; mice): 0.09 µg·h/mL
- Disease severity (therapeutic mCIA) EAUC80 (AUC 0-4 hr) ([1]; mice): 0.19 µg·h/mL
- Eosinophils (% inhibition) ([2]; 0.1 mg/kg): 42%
- Lymphocytes (% inhibition) ([2]; 0.1 mg/kg): 34%
- Neutrophils (% inhibition) ([2]; 0.1 mg/kg): 29%
- T-cells (% inhibition) ([2]; 0.1 mg/kg): 39%
- Total cells (% inhibition) ([2]; 0.1 mg/kg): 22%
- Eosinophils (% inhibition) ([2]; 1 mg/kg): 97%
- Lymphocytes (% inhibition) ([2]; 1 mg/kg): 94%
- Neutrophils (% inhibition) ([2]; 1 mg/kg): 97%
- T-cells (% inhibition) ([2]; 1 mg/kg): 88%
- Total cells (% inhibition) ([2]; 1 mg/kg): 72%
- Eosinophils (% inhibition) ([2]; 10 mg/kg): 99%
- Lymphocytes (% inhibition) ([2]; 10 mg/kg): 97%
- Neutrophils (% inhibition) ([2]; 10 mg/kg): 100%
- T-cells (% inhibition) ([2]; 10 mg/kg): 96%
- Total cells (% inhibition) ([2]; 10 mg/kg): 83%
- ED50 ([3]; Mus musculus, 672 h, oral gavage, 28 days, LPS-induced serum TNFα): 0.46 mg/kg
- ED80 ([3]; Mus musculus, 672 h, oral gavage, 28 days, LPS-induced serum TNFα, read-out: TNFα Suppression (ED80 dose)): 1.82 mg/kg
- Serum TNFα EAUC50 (AUC 0-4 hr) ([3]; mice): 0.22 µg·h/mL
- Serum TNFα EAUC80 (AUC 0-4 hr) ([3]; mice): 0.33 µg·h/mL
- Tmax [4]: 1.5 h

Reference: patent EP2114888B1, “TRICYCLIC COMPOUNDS AND THEIR USE AS GLUCOCORTICOID RECEPTOR MODULATORS” (priority 2007, dated 2008)
